According to the NIST ThermoML archive (doi:10.1021/je9001027):

Assays:
[1] = wn = mass fraction of the nth substance listed; conditions: 101 kPa, Liquid
[2] = 101 kPa, Liquid
[3] = cn = amount concentration of the nth substance listed, in mol/dm3; conditions: 101 kPa, Liquid

O [water] + C[S+](C)[O-]
[1], w2 = 0
Conditions | mass density [kg/m3] | viscosity [mPa·s]
298.15 K | – | 0.89
303.15 K | – | 0.8003
308.15 K | 983.66 | 0.7591
313.15 K | – | 0.6214
318.15 K | – | 0.5346

C[S+](C)[O-] [dimethyl sulfoxide] + O
[1]
Conditions | mass density, 298.15 K [kg/m3] | mass density, 303.15 K [kg/m3] | mass density, 308.15 K [kg/m3] | mass density, 313.15 K [kg/m3] | mass density, 318.15 K [kg/m3] | viscosity, 298.15 K [mPa·s] | viscosity, 303.15 K [mPa·s] | viscosity, 308.15 K [mPa·s] | viscosity, 313.15 K [mPa·s] | viscosity, 318.15 K [mPa·s]
w1 = 0.2 | 1024.2 | 1019.7 | 1015.2 | 998.4 | 979.2 | 1.34 | – | 1.054 | 0.9572 | 0.8482
w1 = 0.4 | 1053.47 | 1052.47 | 1045.3 | 1040.12 | 1038.01 | 2.221 | 2.221 | 1.921 | 1.618 | 1.497
w1 = 0.5 | 1067.81 | 1062.43 | 1056.4 | 1048.28 | 1047.52 | 2.807 | 2.465 | 2.28 | 2.14 | 1.937
w1 = 0.6 | 1082.31 | 1081.11 | 1072.8 | 1065.21 | 1057.1 | 3.421 | 3.421 | 3.105 | 2.846 | 2.775
w1 = 0.7 | 1087.32 | 1084.92 | 1080.83 | 1075.23 | 1067.12 | 2.357 | – | 2.081 | 1.927 | 1.865
w1 = 1 | 1095.41 | 1090.13 | 1085.38 | 1080.58 | 1074.5 | 1.966 | 1.809 | 1.652 | 1.559 | 1.488

C[S+](C)[O-] [dimethyl sulfoxide]
[2]
Conditions | mass density [kg/m3] | viscosity [mPa·s]
298.15 K | 1095.41 | 1.966
303.15 K | 1090.13 | 1.809
308.15 K | 1085.38 | 1.652
313.15 K | 1080.58 | 1.559
318.15 K | 1074.5 | 1.488

[Br-].[Rb+] [rubidium bromide] + O
[3]
Conditions | mass density, 298.15 K [kg/m3] | mass density, 303.15 K [kg/m3] | mass density, 308.15 K [kg/m3] | viscosity, 298.15 K [mPa·s] | viscosity, 303.15 K [mPa·s] | viscosity, 318.15 K [mPa·s]
c1 = 0.01 | 996.69 | 996.08 | 989.87 | 0.893 | 0.8934 | 0.5367
c1 = 0.013 | 996.84 | 996.08 | 989.89 | 0.8935 | 0.8937 | 0.537
c1 = 0.02 | 997.03 | 996.14 | 989.99 | 0.8953 | 0.8943 | 0.5375
c1 = 0.024 | – | – | 990.03 | – | – | 0.5378
c1 = 0.025 | 997.28 | 996.17 | – | 0.8962 | 0.8946 | –
c1 = 0.034 | – | – | – | – | – | 0.5383
c1 = 0.035 | – | – | 990.13 | – | – | –
c1 = 0.038 | 997.79 | 996.24 | – | 0.8966 | 0.895 | –

[Br-].[Rb+] [rubidium bromide] + C[S+](C)[O-]
[3]
Conditions | mass density, 298.15 K [kg/m3] | mass density, 303.15 K [kg/m3] | mass density, 308.15 K [kg/m3] | mass density, 313.15 K [kg/m3] | mass density, 318.15 K [kg/m3] | viscosity, 298.15 K [mPa·s] | viscosity, 303.15 K [mPa·s] | viscosity, 308.15 K [mPa·s] | viscosity, 313.15 K [mPa·s] | viscosity, 318.15 K [mPa·s]
c1 = 0.011 | 1096.9 | 1092.54 | 1087.75 | 1087.75 | 1096.42 | 1.997 | 1.839 | 1.682 | 1.587 | 1.515
c1 = 0.02 | 1098.3 | 1097.71 | – | 1088.77 | 1096.52 | 2.019 | 1.861 | – | 1.604 | 1.531
c1 = 0.024 | – | – | 1088.77 | – | – | – | – | 1.701 | – | –
c1 = 0.026 | – | 1106.91 | – | – | – | – | 1.877 | – | – | –
c1 = 0.027 | 1100.1 | – | 1088.97 | – | 1096.58 | 2.039 | – | 1.712 | – | 1.542
c1 = 0.028 | – | – | – | 1089.77 | – | – | – | – | 1.615 | –
c1 = 0.03 | 1100.4 | 1110.93 | 1089.97 | 1089.97 | 1096.6 | 2.047 | 1.884 | 1.722 | 1.62 | 1.549
c1 = 0.046 | 1102.5 | – | – | 1091.97 | – | 2.085 | – | – | 1.659 | –
c1 = 0.056 | – | 1134.93 | 1091.97 | – | 1096.9 | – | 1.923 | 1.759 | – | 1.581
